US8440810B2, “Riboswitches, methods for their use, and compositions for use with riboswitches” (Yale University, priority 2002, dated 2013)
“Also recorded” adds a separate entry of the source. Where two headings read alike, the source gives them in different places.

Legend:
[1] = test system: 165 thiM RNA; assay type: binding, E. coli; conditions: for structure modulation: 40 μM each compound; for Kd: thiM RNA as reported in Example 3 (FIG. 13), read-out: apparent KD
Description: Specifically, TPP-dependent modulation of the spontaneous cleavage of RNA constructs was visualized by polyacrylamide gel electrophoresis (PAGE). […] Some RNAs were subjected to no reaction, partial digestion with alkali, or partial digestion with RNase T1 (G-specific cleavage) (see FIG. 6a). Composite plots of the fraction of RNA cleaved at specific sites versus the logarithm of the concentration of ligand (e.g. FIG. 7a) were generated to provide an estimate of the apparent KD. Fraction cleaved values were normalized relative to the highest and lowest cleavage values measured for each site.
NR, ^−OH and T1 represent RNAs subjected to no reaction, partial digestion with alkali, or partial digestion with RNase Tl (G-specific cleavage), respectively. Product bands representing cleavage after selected G residues are numbered and identified by filled arrowheads. The asterisk identifies modulation of RNA structure involving the Shine-Dalgarno (SD) sequence. Gel separations were analyzed using a phosphorimager (Molecular Dynamics) and quantitated using ImageQuant software.

[2] = test system: 91 thiM RNA; experiment: Equilibrium dialysis with thiM RNA using 3H-thiamine; assay type: binding, E. coli; conditions: 100 μM competitor (Example 2)
[3] = test system: ribD RNA; experiment: In-line probing of ribD RNA (RFN element); assay type: binding, B. subtilis
Experimental: To assess whether the RFN element of ribD was responsive to FMN, a fragment of the corresponding 5′-UTR was 5′-^32P labeled and incubated in the absence and presence of FMN, and the resulting fragments were analyzed by polyacrylamide gel electrophoresis (PAGE). […] To obtain values for apparent dissociation constant (apparent KD) for FMN, in-line probing assays were repeated with trace amounts of ribD RNA and increasing concentrations of FMN; the ligand concentration that correlates with half-maximal modulation of RNA structure should reflect the apparent KD.

[4] = test system: lysC 5′-UTR template; experiment: In vitro transcription termination assay, lysC 5′-UTR; conditions: 10 mM compound
[5] = test system: 179 lysC RNA; assay type: binding, B. subtilis; conditions: 50 μM unlabeled compound, additional 10 hr
[6] = test system: btuB leader-lacZ fusion; conditions: from Nou and Kadner; Lundrigan and Kadner; cited from earlier work
[7] = test system: 202-nucleotide mRNA leader (btuB); experiment: Equilibrium dialysis with btuB mRNA leader; conditions: 5,000 pmoles unlabeled compound added to chamber b
[8] = test system: btuB leader-lacZ fusion; experiment: btuB-lacZ expression assay; assay type: cell-based, E. coli; conditions: wild-type btuB leader
[9] = test system: 202-nucleotide leader sequence of the btuB mRNA; assay type: binding, Escherichia coli; conditions: AdoCbl analogs of FIG. 4
Experimental: Precursor mRNA leader molecules were prepared by in vitro transcription from templates generated by PCR (see In vivo Expression Constructs and Assays section below) and 5′ ^32p-labeled using methods described previously (Soukup and Breaker, Allosteric nucleic acid catalysts. Curr. Opin. Struct. Biol. 10, […] (2000)). Approximately 20 nM of labeled RNA precursor was incubated as described in the brief description of FIG. 1. Accompanying digestions were carried out using reaction conditions similar to those described previously (Soukup and Breaker, Relationship between internucleotide linkage geometry and the stability of […]. RNA 5, 1308-1325 (1999)). […]
Metabolite-dependent conformational changes in the 202-nucleotide leader sequence of the btuB mRNA. […] The image was generated using a phosphorimager (Molecular Dynamics), and cleavage yields were quantitated by using ImageQuant software. […]
The btuB mRNA leader forms a saturable binding site for AdoCbl. […] 5′-^32P-labeled mRNA leader molecules were incubated, separated, and analyzed as described in the in the legend to FIG. 1A, and include identical control and marker lanes as indicated. […] Fraction cleaved values were normalized relative to the highest and lowest cleavage values measured for each location, including the values obtained upon incubation in the absence of AdoCbl. […]

[10] = test system: 80 ydhL RNA; experiment: In-line probing of 80 ydhL RNA; assay type: binding, B. subtilis
[11] = test system: 124 yitJ RNA; experiment: In-line probing of 124 yitJ RNA; assay type: binding, B. subtilis
[12] = test system: metI leader construct; assay type: biochemical, B. subtilis; conditions: 50 μM; in all instances (yitJ, yoaD, metK, metI leaders)
[13] = test system: 93 xpt RNA; experiment: In-line probing of 93 xpt RNA; assay type: binding, B. subtilis; conditions: for modulation of spontaneous cleavage pattern: 1 μM (adenine as much as 1 mM), 93 xpt and 201 xpt
[14] = test system: 93 xpt RNA; experiment: Equilibrium dialysis with 93 xpt RNA; assay type: binding, B. subtilis; conditions: 500 nM analog
[15] = test system: wild-type ydhL riboswitch fused to β-galactosidase reporter gene; experiment: ydhL-lacZ β-galactosidase reporter expression; assay type: cell-based, B. subtilis
[16] = test system: 93 xpt RNA (C to U mutation at position 74); assay type: binding, B. subtilis
[17] = test system: xpt riboswitch variant with the C to U mutation at position 74, reporter construct; assay type: cell-based, B. subtilis
[18] = test system: xpt-pbuX 5′-UTR fused to β-galactosidase reporter gene; experiment: xpt-lacZ β-galactosidase reporter expression; assay type: cell-based, B. subtilis; conditions: wild-type xpt construct, six-hour incubation
[19] = test system: thiC-lacZ fusion
[20] = test system: thiM-lacZ fusion
[21] = test system: lysC 5′-UTR fused to lacZ reporter gene; assay type: cell-based, B. subtilis; conditions: wild-type construct, minimal medium plus 1 mM compound
[22] = biological target: 179 lysC RNA; experiment: In-line probing of 179 lysC RNA; conditions: read-out: apparent KD; lysine analogs, data not shown, RNA construct not stated
[23] = translational fusion, 100 μM thiamine, minimal medium

Cc1ncc(C[n+]2csc(CCO)c2C)c(=O)[nH]1 [oxythiamine]
structure modulation [1]: fail to induce structure modulation | reversal of 3H-thiamine shift by excess unlabeled compound [2]: does not significantly restore the tritium distribution to unity; also recorded: could not be reversed

Cc1cc2nc3c(=O)[nH]c(=O)nc-3n(C[C@H](O)[C@H](O)[C@H](O)CO)c2cc1C [riboflavin]
discrimination relative to FMN [3]: approximately three orders of magnitude | discrimination relative to FMN ([3]; worded for FMN riboswitches): ~1,000 fold

NCCC[C@H](N)C(=O)O [L-ornithine]
induction of transcription termination [4]: Neither D-lysine nor L-ornithine induce termination | restoration of equal tritium distribution by unlabeled competitor [5]: do not restore equal distribution of tritium

cyanocobalamin
regulatory effector for btuB expression [6]: incapable of serving as a regulatory effector | restoration of equal tritium distribution by excess unlabeled compound [7]: does not restore the ratio of tritium to unity

13-epi-AdoCbl [compound 11]
regulatory effector function on reporter gene inside cells [8]: inactive | structural modulation (spontaneous cleavage at site 2, U68) [9]: inactive

c1ncc2[nH]cnc2n1 [P, purine]
binding / structural modulation [10]: measurable binding

Nc1ncnc2c1ncn2[C@@H]1O[C@H](CSC[C@H](N)C(=O)O)[C@@H](O)[C@H]1O [SAC]
discrimination relative to SAM [11]: ~10,000 fold | modulation of transcription termination [12]: little or no modulation of transcription termination

Nc1ncnc2nc(Cl)[nH]c12 [8-chloroadenine]
binding / structural modulation [10]: prevents ligand binding

O=c1[nH]cnc2nc[nH]c12 [hypoxanthine]
modulation of spontaneous cleavage pattern [13]: induce modulation of spontaneous cleavage

Cc1ncc(C[n+]2csc(CCOP(=O)(O)O)c2C)c(N)n1 [TP, thiamine monophosphate]
structure modulation [1]: induce modulation | Kd [1]: 3 µM

Nc1nc2c(ncn2[C@@H]2O[C@H](CO)[C@@H](O)[C@H]2O)c(=O)[nH]1 [guanosine]
redistribution of 3H-guanine by excess unlabeled competitor [14]: fails to restore equal distribution

Nc1nc(Br)c2[nH]cnc2n1 [2-amino-6-bromopurine]
loss in apparent KD relative to guanine [13]: ~1,000 fold

Nc1ncnc2c1ncn2[C@@H]1O[C@H](CSCC[C@H](N)C(=O)O)[C@@H](O)[C@H]1O [SAH, S-adenosylhomocysteine]
discrimination relative to SAM [11]: ~100 fold | modulation of transcription termination [12]: little or no modulation of transcription termination

Nc1ncnc2nc[nH]c12 [adenine]
increase in gene expression [15]: greater than 10 fold | modulation of spontaneous cleavage pattern [13]: does not alter the pattern of RNA cleavage products | apparent KD poorer than for guanine ([13]; guanine riboswitch from B. subtilis xpt): at least 100,000 fold | Kd ([13]; read-out: KD): > 300 µM | binding / structural modulation [10]: specific for adenine | Kd ([10]; half-maximal change at sites 1 through 4, read-out: apparent KD): ~0.3 µM | binding / structural modulation ([10]; listed as A): measurable binding | structural modulation and binding in equilibrium dialysis [16]: exhibits structural modulation and binding activity | Kd ([16]; read-out: apparent KD): ~0.1 µM | regulation of reporter expression [17]: no change in the putative protein-dependent control | repression of reporter expression [18]: ~4 fold

CNc1ncnc2nc[nH]c12 [MA, 6-methylaminopurine]
binding / structural modulation [10]: measurable binding

NCCCC[C@@H](N)C(=O)O [D-lysine]
induction of transcription termination [4]: Neither D-lysine nor L-ornithine induce termination | restoration of equal tritium distribution by unlabeled competitor [5]: do not restore equal distribution of tritium

Cc1ncc(C[n+]2csc(CCO)c2C)c(N)n1 [thiamine]
structure modulation [1]: induce modulation | Kd [1]: 40 µM | reversal of 3H-thiamine shift by excess unlabeled compound [2]: could be eliminated | modulation of β-galactosidase activity ([19]; transcriptional fusion): 16 fold | thiamine-dependent suppression of β-galactosidase activity [19, 23]: 110 fold | suppression of β-galactosidase activity ([20]; transcriptional fusion): not subject to suppression | thiamine-dependent suppression of β-galactosidase activity [20, 23]: 18 fold

COc1nc(N)nc2nc[nH]c12 [O^6-methylguanine]
loss in apparent KD relative to guanine [13]: > 100 fold

O=c1[nH]c(=O)c2[nH]cnc2[nH]1 [xanthine]
modulation of spontaneous cleavage pattern [13]: induce modulation of spontaneous cleavage

Nc1ncc2[nH]cnc2n1 [2-aminopurine]
binding / structural modulation [10]: measurable binding

Nc1nc(N)c2[nH]cnc2n1 [2,6-DAP, 2,6-diaminopurine]
binding / structural modulation [10]: measurable binding; also recorded: tightest-binding ligand

NCCSC[C@H](N)C(=O)O [thiosine, S-(2-aminoethyl)-L-cysteine]
repression of β-galactosidase reporter expression [21]: represses β-galactosidase expression | induction of transcription termination [4]: cause an increase in transcription termination | Kd [22]: ~30 µM
